From patent publication US20130072506A1, “6,8-DISUBSTITUTED PURINE COMPOSITIONS” (priority 2011, published 2013)
Like-named read-outs stand apart in the source and are kept apart here.

Columns and labels:
[1] = tested on: erytroid leukemia cell line K-562; assay: In vitro cytotoxic activity (metabolisation of Calcein AM); type: cell-based, human; settings: 72 hours incubation, called GI50, read-out: Cell line tested/IC50 (μmol/L) K-562
Text: (§1) In vitro Cytotoxic Activity (Metabolisation of Calcein AM). Because toxic compounds negatively influence metabolic processes of cells, many standard cytotoxicity assays are based on measurement of metabolisation rate of various artificial substrates. Resulting product is then quantified, for example, by means of spectrometry. The assays can be easily modified for use in 96-well plates. For evaluation of cytotoxicity of the 6,8-disubstituted purines of this invention, a microtiter assay based on quantification of metabolisation of Calcein AM was used. The assay is widely used in drug screening programs and in chemosensitivity testing. In live cells, Calcein AM is enzymatically hydrolysed and accumulation of resulting calcein is manifested by green fluorescence.
(§2) The following human cell lines were used for routine screening of the compounds: normal diploid fibroblasts BJ, T-lymphoblastic leukemia cell line CEM, promyelocytic leukemia cell line HL-60, erytroid leukemia cell line K-562, breast carcinoma cell line MCF-7, osteosarcoma cell line HOS and melanoma cell line G-361. The cells were maintained in Nunc/Corning 80 cm^2 plastic tissue culture flasks and cultured in cell culture medium (DMEM with 5 g/l glucose, 2 mM glutamine, […] penicillin, 100 mmg/ml streptomycin, 10% fetal calf serum and sodium bicarbonate).
(§3) The cell suspensions were prepared and diluted according to the particular cell type and the expected target cell density (2.500-30.000 cells per well based on cell growth characteristics) and pipetted (80 μl) into 96-well plates. Inoculates were allowed a pre-incubation period of 24 hours at 37° C. and 5% CO2 for stabilization. Tested compound was added in total volume of […] of water at time zero. Usually, test compound was evaluated at six 3-fold dilutions. In routine testing, the highest concentration tested was 100 μM, but it could have been adjusted because of limited solubility of a compound. All drug concentrations were tested in triplicates.
(§4) Incubations of cells with the test compounds lasted for 72 hours at 37° C., in 5% CO2 atmosphere and 100% humidity. At the end of incubation period Calcein AM in PBS was added into final concentration of 1 μg/ml. After another 1 hour of incubation fluorescence (FD) was measured with the Labsystem FIA Reader Fluoroscan Ascent (UK). Growth inhibition (GI) was estimated using the following equitation: GI=(mean FDdrug exposed wells−mean FDblank)/(mean FDcontrol wells−mean FDblank)×100%. The GI50 value, the drug concentration causing 50% reduction of Calcein AM conversion, was calculated from the obtained dose response curves.

melanoma cell line G-361 = assay: as above; type: cell-based, human; settings: G-361 cells, 72 hours incubation, called GI50, read-out: Cell line tested/IC50 (μmol/L) G-361
Text: as §1, §2, §3, §4

[2] = tested on: osteosarcoma cell line HOS; assay: as above; type: cell-based, human; settings: HOS cells, 72 hours incubation, called GI50, read-out: Cell line tested/IC50 (μmol/L) HOS
Text: as §1, §2, §3, §4

[3] = tested on: breast carcinoma cell line MCF-7; assay: as above; type: cell-based, human; settings: MCF7 cells, 72 hours incubation, called GI50, read-out: Cell line tested/IC50 (μmol/L) MCF7
Text: as §1, §2, §3, §4

[4] = tested on: normal diploid fibroblasts BJ; assay: as above; type: cell-based, human; settings: BJ cells, 72 hours incubation, called GI50, read-out: Cell line tested/IC50 (μmol/L) BJ
Text: as §1, §2, §3, §4

[5] = tested on: T-lymphoblastic leukemia cell line CEM; assay: as above; type: cell-based, human; settings: CEM cells, 72 hours incubation, called GI50, read-out: Cell line tested/IC50 (μmol/L) CEM
Text: as §1, §2, §3, §4

[6] = tested on: Human diploid fibroblast BJ; assay: In vitro cytotoxic activity (metabolisation of MTT); type: cell-based; settings: 72 hours, BJ passage 18-22
Description: In vitro Cytotoxic Activity (metabolisation of Mtt). MTT ([…]) assay is a standard colorimetric assay for evaluation of cytotoxicity. Mitochondrial dehydrogenase activity converts yellow MTT into violet formazan which is measured by means of spectrometry.
Human diploid fibroblast BJ (passage 18-22) were seeded into 96-well plate (5.000 cells per well). After 6 hours cultivation medium (DMEM with 5 g/l glucose, 2 mM glutamine, 100 U/ml penicillin, 100 mmg/ml streptomycin, 10% fetal calf serum and sodium bicarbonate) was replaced with the cultivation medium containing test compounds in concentration range of 0-200 μM. Highest concentration was adjusted if the solubility of the compound was limiting. Every concentration was tested in pentaplicate. MTT was added to the cells after 72 hours incubation (final concentration 0.5 mg/ml) and incubation continued for another 3 hours. MTT was solubilised by DMSO and absorbance at 570 nm was measured. Growth inhibition (GI) was estimated using the following equitation: GI=(mean A drug exposed wells−mean Ablank/mean Acontrol wells−mean Ablank)×100%. The GI20 value, the drug concentration causing 20% decrease in mitochondrial dehydrogenase activity, was calculated from the obtained dose response curves.

[7] = Homo sapiens, K562, K-562 cells

| Compound | IC50 ([1]; K-562 cells) | IC50 (melanoma cell line G-361) | IC50 [2] | IC50 [3] | IC50 [4] | IC50 [5] | GI20 [6] | IC50 [1, 7] | IC50 (melanoma cell line G-361; Homo sapiens) | IC50 ([2]; Homo sapiens) | IC50 ([3]; Homo sapiens) | IC50 ([4]; Homo sapiens) | IC50 ([5]; Homo sapiens, CCRF-CEM) |
| --- | --- | --- | --- | --- | --- | --- | --- | --- | --- | --- | --- | --- | --- |
| CC(=CCNc1ncnc2nc(Br)[nH]c12)CO [Compound 3] | > 50 µmol/L | > 50 µmol/L | > 50 µmol/L | > 50 µmol/L | > 50 µmol/L | > 50 µmol/L | – | – | – | – | – | – | – |
| Oc1cccc(CNc2ncnc3nc(Cl)[nH]c23)c1O [Compound 46] | > 50 µmol/L | > 100 µmol/L | > 100 µmol/L | > 100 µmol/L | > 100 µmol/L | > 100 µmol/L | >200 µM | – | – | – | – | – | – |
| Oc1cc(O)cc(CNc2ncnc3nc(Cl)[nH]c23)c1 [Compound 47] | > 100 µmol/L | > 100 µmol/L | > 100 µmol/L | > 100 µmol/L | > 100 µmol/L | > 100 µmol/L | >200 µM | – | – | – | – | – | – |
| CC(=CCNc1ncnc2nc(N(C)C)[nH]c12)CO [Compound 63] | > 50 µmol/L | > 50 µmol/L | > 50 µmol/L | > 50 µmol/L | > 50 µmol/L | > 50 µmol/L | >100 µM | – | – | – | – | – | – |
| CC(CO)CCNc1ncnc2nc(N(C)C)[nH]c12 (stereo not shown) [Compound 64] | > 50 µmol/L | > 50 µmol/L | > 50 µmol/L | > 50 µmol/L | > 50 µmol/L | > 50 µmol/L | >100 µM | – | – | – | – | – | – |
| Nc1nc2ncnc(NCc3ccccc3Br)c2[nH]1 [Compound 93] | > 50 µmol/L | > 50 µmol/L | > 50 µmol/L | > 50 µmol/L | > 50 µmol/L | > 50 µmol/L | – | – | – | – | – | – | – |
| COc1nc2ncnc(NCC=C(C)CO)c2[nH]1 [Compound 122] | > 50 µmol/L | > 50 µmol/L | > 50 µmol/L | > 50 µmol/L | > 50 µmol/L | > 50 µmol/L | – | – | – | – | – | – | – |
| COc1nc2ncnc(NCc3cccc(OC)c3O)c2[nH]1 [Compound 130] | > 50 µmol/L | > 50 µmol/L | > 50 µmol/L | > 50 µmol/L | > 50 µmol/L | > 50 µmol/L | – | – | – | – | – | – | – |
| Sc1nc2ncnc(NCc3ccco3)c2[nH]1 [Compound 137, 6-furfurylamino-8-mercaptopurine] | – | – | – | – | – | – | – | > 50 µmol/L | > 50 µmol/L | > 50 µmol/L | > 50 µmol/L | > 50 µmol/L | > 50 µmol/L |
| CSc1nc2ncnc(NCc3ccco3)c2[nH]1 [Compound 147, 6-furfurylamino-8-methylthiopurine] | – | – | – | – | – | – | – | > 50 µmol/L | > 50 µmol/L | > 50 µmol/L | > 50 µmol/L | > 50 µmol/L | > 50 µmol/L |
| Oc1nc2ncnc(NCc3ccco3)c2[nH]1 [Compound 166] | > 50 µmol/L | > 50 µmol/L | > 50 µmol/L | > 50 µmol/L | > 50 µmol/L | > 50 µmol/L | – | – | – | – | – | – | – |
| CC(=CCNc1ncnc2nc(O)[nH]c12)CO [Compound 168] | > 50 µmol/L | > 50 µmol/L | > 50 µmol/L | > 50 µmol/L | > 50 µmol/L | > 50 µmol/L | – | – | – | – | – | – | – |
| Oc1cccc(CNc2ncnc3nc(O)[nH]c23)c1 [Compound 169] | > 50 µmol/L | > 50 µmol/L | > 50 µmol/L | > 50 µmol/L | > 50 µmol/L | > 50 µmol/L | – | – | – | – | – | – | – |
| COc1cccc(CNc2ncnc3nc(O)[nH]c23)c1 [Compound 170] | > 50 µmol/L | > 50 µmol/L | > 50 µmol/L | > 50 µmol/L | > 50 µmol/L | > 50 µmol/L | – | – | – | – | – | – | – |
| Oc1nc2ncnc(Nc3ccccc3)c2[nH]1 [Compound 171] | > 50 µmol/L | > 50 µmol/L | > 50 µmol/L | > 50 µmol/L | > 50 µmol/L | > 50 µmol/L | – | – | – | – | – | – | – |
| COc1cccc(Nc2ncnc3nc(O)[nH]c23)c1 [Compound 172] | > 50 µmol/L | > 50 µmol/L | > 50 µmol/L | > 50 µmol/L | > 50 µmol/L | > 50 µmol/L | – | – | – | – | – | – | – |
| N#Cc1nc2ncnc(NCc3ccco3)c2[nH]1 [Compound 173] | > 50 µmol/L | > 50 µmol/L | > 50 µmol/L | > 50 µmol/L | > 50 µmol/L | > 50 µmol/L | – | – | – | – | – | – | – |
| NCc1nc2ncnc(NCc3ccco3)c2[nH]1 [Compound 180] | > 50 µmol/L | > 50 µmol/L | > 50 µmol/L | > 50 µmol/L | > 50 µmol/L | > 50 µmol/L | – | – | – | – | – | – | – |
| NCc1nc2ncnc(NCc3cccc(F)c3)c2[nH]1 [Compound 182] | > 50 µmol/L | > 50 µmol/L | > 50 µmol/L | > 50 µmol/L | > 50 µmol/L | > 50 µmol/L | – | – | – | – | – | – | – |
| COc1cccc(CNc2ncnc3nc(CN)[nH]c23)c1 [Compound 183] | > 50 µmol/L | > 50 µmol/L | > 50 µmol/L | > 50 µmol/L | > 50 µmol/L | > 50 µmol/L | – | – | – | – | – | – | – |
| NCc1nc2ncnc(Nc3ccccc3)c2[nH]1 [Compound 184] | > 50 µmol/L | > 50 µmol/L | > 50 µmol/L | > 50 µmol/L | > 50 µmol/L | > 50 µmol/L | – | – | – | – | – | – | – |
| COc1ccccc1Nc1ncnc2nc(CN)[nH]c12 [Compound 185] | > 50 µmol/L | > 50 µmol/L | > 50 µmol/L | > 50 µmol/L | > 50 µmol/L | > 50 µmol/L | – | – | – | – | – | – | – |
| COc1cccc(Nc2ncnc3nc(CN)[nH]c23)c1 [Compound 186] | > 50 µmol/L | > 50 µmol/L | > 50 µmol/L | > 50 µmol/L | > 50 µmol/L | > 50 µmol/L | – | – | – | – | – | – | – |
| COC(=O)c1nc2ncnc(NCc3ccco3)c2[nH]1 [Compound 187, 6-furfurylamino-8-(methoxycarbonyl)purine] | – | – | – | – | – | – | – | > 50 µmol/L | > 50 µmol/L | > 50 µmol/L | > 50 µmol/L | > 50 µmol/L | > 50 µmol/L |
| CCOC(=O)c1nc2ncnc(NCc3ccco3)c2[nH]1 [Compound 194, 6-furfurylamino-8-(ethoxycarbonyl)purine] | – | – | – | – | – | – | – | > 50 µmol/L | > 50 µmol/L | > 50 µmol/L | > 50 µmol/L | > 50 µmol/L | > 50 µmol/L |
| O=C(O)c1nc2ncnc(NCc3ccco3)c2[nH]1 [Compound 201] | > 50 µmol/L | > 50 µmol/L | > 50 µmol/L | > 50 µmol/L | > 50 µmol/L | > 50 µmol/L | – | – | – | – | – | – | – |
| NCCCNc1nc2ncnc(NCc3ccco3)c2[nH]1 [Compound 208, 6-furfurylamino-8-(aminopropylamino)purine] | – | – | – | – | – | – | – | > 50 µmol/L | > 50 µmol/L | > 50 µmol/L | > 50 µmol/L | > 50 µmol/L | > 50 µmol/L |
